Data published in patent EP0136464A2, “Therapeutic compositions for oral use containing stable S-Adenosy1-L-Methionine salts” (BIORESEARCH S.p.A., priority 1983, dated 1985).
Like-named read-outs stand apart in the source and are kept apart here.

Experiments:
[1] = SAMe concentration in portal and aortic plasma after intestinal or oral (gastric probe) administration; format: in vivo, male Sprague-Dawley rats; conditions: rat, SAMe-tri-p. toluenesulphonate, reduced by control values; for concentration at 1 h: 60 min; for concentration at 1.5 h: 90 min; for concentration at 2 h: 120 min; for concentration at 3 h: 180 min; for concentration at 4 h: 240 min
Protocol: The values given relate to tests carried out with SAMe-tri-p. toluenesulphonate, but substantially identical results were obtained with other known SAMe salts.
The drug concentrations in the portal or aortic plasma were evaluated as the absorption parameters.
The experiment was carried out on 72 male Sprague-Dawley rats of weight 210-260 g, which had fasted since the previous evening.
The animals, anesthetised with ether, were operated on in order to insert a capsule into the proximal jejunum. The incision in the intestinal wall was closed by ligature, and the animals were sutured.
The treatment scheme was as follows: • Intestinal administration: A capsule containing a weighed SAMe quantity corresponding to a dose of 32 mg/kg of body weight was inserted into the intestine, and 5 ml of H20/kg were administered by means of a gastric probe. • Oral administration: An empty capsule was inserted into the intestine, and 32 mg of SAMe/kg in aqueous solution (5 ml/kg) were • administered by means of a gastric probe. Controls: An empty capsule was inserted into the intestine, and 5 ml of H20/kg of body weight were administered by means of a gastric probe.
After 10, 20, 40, 60, 90, 120, 180 and 240 minutes from administration, 3 animals were sacrificed at a time in order to withdraw portal and aortic blood.
The SAMe concentrations in the plasma were determined by the Baldessarini and Kopin method (J. Neuroch. 13: 769, 1966).
The values represent the mean + standard error of 3 observations, reduced by the values found for the controls.

[2] = system: Reaction to heat, tail flick test in the rat; test: Reaction to heat, tail flick test in the rat (analgesic activity); format: in vivo, male Sprague-Dawley rats
Protocol: (§1) In the experiments carried out on animals which received the SAMe orally, the drug was dissolved in physiological solution and administered by gastric probe in a volume of 0.5 ml/100 g of body weight. An equal volume of physiological solution was administered to the controls.
(§2) In the experiments in which SAMe was administered intraduodenally, the animals anesthetised with ether were subjected to laparotomy to allow the insertion into the duodenum of gelatin capsules (size 4) containing the product.
(§3) After inserting the capsule, the duodenum was sutured carefully so as not to traumatise the tissue and was then returned to its seat, the muscular and cutaneous layers then being re-composed and sutured.
(§4) The control animals received an empty gelatin capsule by the same procedure.
1) Reaction to heat, tail flick test in the rat.
The analgesic activity of SAMe was evaluated in male Sprague-Dawley rats of about 190 g weight by the method of D'Amour and Smith (J. Pharmacol. Exp. Theor. 71, 74 (1941)).
The SAMe was administered either orally or in gelatin capsules into the duodenum in doses of 50 and 100 mg/kg.
Morphine was used as the comparison drug and was administered under the cutis at a dose of 5 mg/kg.
The analgesic activity was determined 30, 60 and 120 minutes after administration of the drugs.
The results represent the mean + S.E. for the number of animals indicated in parentheses. The morphine was administered under the cutis to rats which received one empty capsule into the duodenum.

[3] = system: Edema induced by carrageen in the rat; test: Edema induced by carrageen in the rat (anti-inflammatory activity); format: in vivo, Male Sprague-Dawley rats
Protocol: as §1, §2, §3, §4
The antiphlogistic and analgesic activity of SAMe were evaluated by the following tests: • A. Anti-inflammatory activity • 1) Edema induced by carrageen in the rat.
Male Sprague-Dawley rats of about 170 g weight were used, having fasted since the evening preceding the experiment. Edema was induced by carrageen using the method described by Winter et al. (Proc. Soc. Exp. Biol. Med. 111, 544 (1962)).
The SAMe was administered orally one hour before the carrageen at doses of 25 and 50 mg/kg, and intraduodenally at doses of 25 and 50 mg/kg 80 minutes before the phlogogenic agent. […]

[4] = aortic plasma, po, 32 mg/kg aqueous solution by gastric probe, read-out: SAMe concentration in the plasma, Oral treatment, Aortic
[5] = aortic plasma, 32 mg/kg capsule into proximal jejunum, read-out: SAMe concentration in the plasma, Intestinal treatment, Aortic
[6] = portal plasma, po, 32 mg/kg aqueous solution by gastric probe, read-out: SAMe concentration in the plasma, Oral treatment, Portal
[7] = portal plasma, 32 mg/kg capsule into proximal jejunum, read-out: SAMe concentration in the plasma, Intestinal treatment, Portal

With `C[S+](CC[C@H](N)C(=O)[O-])C[C@H]1O[C@@H](n2cnc3c(N)ncnc32)[C@H](O)[C@@H]1O` (stereo partly drawn) [SAMe, Sulpho-adenosyl-L-methionine] the concentration at 10 min [1, 4] was 1.1 µg/mL, the concentration at 20 min [1, 4] was 0.78 µg/mL and the concentration at 40 min [1, 4] was 0.72 µg/mL. The concentration at 1 h [1, 4] was 0.7 µg/mL, the concentration at 1.5 h [1, 4] was 0.68 µg/mL and the concentration at 2 h [1, 4] was 0.68 µg/mL. The concentration at 3 h [1, 4] was 0.66 µg/mL, the concentration at 4 h [1, 4] was 0.64 µg/mL and the concentration at 10 min [1, 5] was 13.1 µg/mL. For the same compound, the concentration at 20 min [1, 5] was 8.63 µg/mL, the concentration at 40 min [1, 5] was 4.39 µg/mL and the concentration at 1 h [1, 5] was 1.87 µg/mL. For the same compound, the concentration at 1.5 h [1, 5] was 1.28 µg/mL, the concentration at 2 h [1, 5] was 0.88 µg/mL and the concentration at 3 h [1, 5] was 0.69 µg/mL. It also gave a concentration at 4 h [1, 5] of 0.53 µg/mL, a concentration at 10 min [1, 6] of 2.93 µg/mL and a concentration at 20 min [1, 6] of 0.87 µg/mL. It also gave a concentration at 40 min [1, 6] of 0.84 µg/mL, a concentration at 1 h [1, 6] of 0.61 µg/mL and a concentration at 1.5 h [1, 6] of 0.54 µg/mL. For the same compound, the concentration at 2 h [1, 6] was 0.52 µg/mL, the concentration at 3 h [1, 6] was 0.52 µg/mL and the concentration at 4 h [1, 6] was 0.46 µg/mL. It also gave a concentration at 10 min [1, 7] of 25.5 µg/mL, a concentration at 20 min [1, 7] of 9.39 µg/mL and a concentration at 40 min [1, 7] of 2.99 µg/mL. For the same compound, the concentration at 1 h [1, 7] was 2.44 µg/mL, the concentration at 1.5 h [1, 7] was 1.54 µg/mL and the concentration at 2 h [1, 7] was 0.77 µg/mL. For the same compound, the concentration at 3 h [1, 7] was 0.77 µg/mL, the concentration at 4 h [1, 7] was 0.64 µg/mL and the “Reaction time in minutes at various times after treatment” value (“Reaction time in minutes” below) ([2]; administered into the duodenum, 50 mg/kg, 30 min) was 8.5 min. For the same compound, the “Reaction time in minutes” value ([2]; administered into the duodenum, 50 mg/kg, 60 min) was 8.2 min, the “Reaction time in minutes” value ([2]; administered into the duodenum, 50 mg/kg, 120 min) was 8.3 min and the “Reaction time in minutes” value ([2]; administered into the duodenum, 50 mg/kg, T0) was 4.8 min. For the same compound, the “Reaction time in minutes” value ([2]; administered into the duodenum, 100 mg/kg, 30 min) was 10.2 min, the “Reaction time in minutes” value ([2]; administered into the duodenum, 100 mg/kg, 60 min) was 9.6 min and the “Reaction time in minutes” value ([2]; administered into the duodenum, 100 mg/kg, 120 min) was 8.5 min. The “Reaction time in minutes” value ([2]; administered into the duodenum, 100 mg/kg, T0) was 5.0 min, the “Reaction time in minutes” value ([2]; administered orally, 50 mg/kg, 30 min) was 5.04 min and the “Reaction time in minutes” value ([2]; administered orally, 50 mg/kg, 60 min) was 4.09 min. For the same compound, the “Reaction time in minutes” value ([2]; administered orally, 50 mg/kg, 120 min) was 4.20 min, the “Reaction time in minutes” value ([2]; administered orally, 50 mg/kg, T0) was 4.60 min and the “Reaction time in minutes” value ([2]; administered orally, 100 mg/kg, 30 min) was 4.46 min. The “Reaction time in minutes” value ([2]; administered orally, 100 mg/kg, 60 min) was 4.73 min, the “Reaction time in minutes” value ([2]; administered orally, 100 mg/kg, 120 min) was 4.25 min and the “Reaction time in minutes” value ([2]; administered orally, 100 mg/kg, T0) was 4.41 min. The “reaction times, difference between treated animals and the controls” value ([2]; intraduodenal administration, 100 mg/kg, 30 minutes after treatment) was “highly significant difference (P<0.01)”, the “reaction time towards heat with respect to the controls” value ([2]; oral administration, 50 and 100 mg/kg) was “not able to modify the reaction time towards heat” and the edema inhibition ([3]; intraduodenal administration, 50 mg/kg, 80 minutes before the phlogogenic agent) was “statistically significant edema inhibition”. For the same compound, the edema development ([3]; oral administration, 25 and 50 mg/kg, one hour before the carrageen, versus controls) was “not able to significantly modify the edema development”.
